Experimental data: ChEMBL document CHEMBL1201862, “PubChem BioAssay data set” (2004)
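Briefly, cells in 96-well plates were exposed to five compound concentrations for 48 h, and endpoints were estimated by linear interpolation. GI50: concentration for 50% inhibition of growth.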 Active and inactive are the calls of the source. No stated cut-off is given here; in the data, active = GI50 up to about 1.1 µM and inactive = higher.

Columns and labels:
Assay in all cases: inhibition of tumour cell growth, NCI panel, 48 h
UO-31 = system: UO-31
OVCAR-4 = system: OVCAR-4
RXF 393 = system: RXF 393
HOP-92 = system: HOP-92
HOP-62 = system: HOP-62
MDA-MB-231 = system: MDA-MB-231
SN12C = system: SN12C
DU-145 = system: DU-145
LOX IMVI = system: LOX IMVI
SK-MEL-5 = system: SK-MEL-5
SR = system: SR
SF-539 = system: SF-539
ACHN = system: ACHN
NCI-H522 = system: NCI-H522
SNB-75 = system: SNB-75
CCRF-CEM = system: CCRF-CEM
K562 = system: K562
SK-MEL-28 = system: SK-MEL-28
Hs-578T = system: Hs-578T
Malme-3M = system: Malme-3M

| SMILES | GI50 (UO-31) | GI50 (OVCAR-4) | GI50 (RXF 393) | GI50 (HOP-92) | GI50 (HOP-62) | GI50 (MDA-MB-231) | GI50 (SN12C) | GI50 (DU-145) | GI50 (LOX IMVI) | GI50 (SK-MEL-5) | GI50 (SR) | GI50 (SF-539) | GI50 (ACHN) | GI50 (NCI-H522) | GI50 (SNB-75) | GI50 (CCRF-CEM) | GI50 (K562) | GI50 (SK-MEL-28) | GI50 (Hs-578T) | GI50 (Malme-3M) |
| --- | --- | --- | --- | --- | --- | --- | --- | --- | --- | --- | --- | --- | --- | --- | --- | --- | --- | --- | --- | --- |
| ON[C@H]1C[C@@H](n2cnc3c(NC4CC4)ncnc32)[C@H](O)[C@@H]1O | > 100 µM (inactive) | > 100 µM (inactive) | > 100 µM (inactive) | > 100 µM (inactive) | > 100 µM (inactive) | > 100 µM (inactive) | > 100 µM (inactive) | > 100 µM (inactive) | > 100 µM (inactive) | > 100 µM (inactive) | > 100 µM (inactive) | > 100 µM (inactive) | > 100 µM (inactive) | > 100 µM (inactive) | > 100 µM (inactive) | > 100 µM (inactive) | > 100 µM (inactive) | > 100 µM (inactive) | > 100 µM (inactive) | > 100 µM (inactive) |
| COc1ccc2c(c1)CC[C@@H]1[C@@H]2CC[C@]2(C)/C(=N/OCCN3CCCC3)CC[C@@H]12 | 2.81 µM (inactive) | 12 µM (inactive) | 1.92 µM (inactive) | 2.49 µM (inactive) | 1.98 µM (inactive) | 3.83 µM (inactive) | 6.52 µM (inactive) | 3.94 µM (inactive) | 1.57 µM (inactive) | 1.9 µM (inactive) | 1.97 µM (inactive) | 1.9 µM (inactive) | 4.45 µM (inactive) | 3 µM (inactive) | 3 µM (inactive) | 1.49 µM (inactive) | 0.76 µM (active) | 1.39 µM (inactive) | 2.65 µM (inactive) | 1.63 µM (inactive) |
| CCOC(=O)c1c(SC(=O)c2cc(OC)c(OC)c(OC)c2)n(-c2ccccc2)c(=S)n(-c2ccccc2)c1=O | – | > 100 µM (inactive) | > 100 µM (inactive) | > 100 µM (inactive) | > 100 µM (inactive) | > 100 µM (inactive) | > 100 µM (inactive) | > 100 µM (inactive) | > 100 µM (inactive) | – | > 100 µM (inactive) | > 100 µM (inactive) | > 100 µM (inactive) | > 100 µM (inactive) | > 100 µM (inactive) | > 100 µM (inactive) | > 100 µM (inactive) | > 100 µM (inactive) | > 100 µM (inactive) | 51.8 µM (inactive) |
| CC1(c2nc3cc(Cl)c(Cl)cc3[nH]2)CCC(CO)C(C)(C)O1 (centres undefined) | 15.1 µM (inactive) | 25.1 µM (inactive) | 47.4 µM (inactive) | 44 µM (inactive) | 33.3 µM (inactive) | 22.8 µM (inactive) | 32 µM (inactive) | 38 µM (inactive) | 27.7 µM (inactive) | 13.2 µM (inactive) | 19.9 µM (inactive) | 25.4 µM (inactive) | 30.3 µM (inactive) | 6.49 µM (inactive) | 14.8 µM (inactive) | 27.9 µM (inactive) | 36.7 µM (inactive) | 24.8 µM (inactive) | 14.8 µM (inactive) | 24.5 µM (inactive) |
| Cc1ccc(C2=Nn3c(nc4sc(C)c(C)c4c3=O)SC2)cc1 | > 100 µM (inactive) | > 100 µM (inactive) | > 100 µM (inactive) | > 100 µM (inactive) | 64.1 µM (inactive) | > 100 µM (inactive) | > 100 µM (inactive) | > 100 µM (inactive) | > 100 µM (inactive) | > 100 µM (inactive) | > 100 µM (inactive) | > 100 µM (inactive) | > 100 µM (inactive) | > 100 µM (inactive) | 56.4 µM (inactive) | > 10 µM (inactive) | > 100 µM (inactive) | > 100 µM (inactive) | > 100 µM (inactive) | > 100 µM (inactive) |
| Cc1ccc(NC(=O)CC(=O)n2nc(C)c(/N=N/c3cccc(C)c3)c2C)cc1 | > 100 µM (inactive) | > 100 µM (inactive) | 67.3 µM (inactive) | 14 µM (inactive) | 65.8 µM (inactive) | > 100 µM (inactive) | > 100 µM (inactive) | > 100 µM (inactive) | > 100 µM (inactive) | > 100 µM (inactive) | 61.7 µM (inactive) | > 100 µM (inactive) | > 100 µM (inactive) | > 100 µM (inactive) | 18.1 µM (inactive) | 86.3 µM (inactive) | – | > 100 µM (inactive) | 38.5 µM (inactive) | > 100 µM (inactive) |
| COc1ccc(Br)c2c1CC(C(=O)O)CC2 (centres undefined) | > 100 µM (inactive) | > 100 µM (inactive) | > 100 µM (inactive) | > 78.5 µM (inactive) | > 100 µM (inactive) | > 100 µM (inactive) | > 100 µM (inactive) | > 100 µM (inactive) | > 100 µM (inactive) | > 100 µM (inactive) | > 54 µM (inactive) | > 100 µM (inactive) | > 100 µM (inactive) | > 100 µM (inactive) | > 100 µM (inactive) | > 100 µM (inactive) | > 100 µM (inactive) | > 100 µM (inactive) | > 100 µM (inactive) | > 100 µM (inactive) |
| Cn1/c(=N\N=C2\C=C3CCCCC3(C)CC2)sc2ccccc21 (centres undefined) | > 100 µM (inactive) | > 100 µM (inactive) | > 100 µM (inactive) | > 100 µM (inactive) | > 100 µM (inactive) | 71.8 µM (inactive) | > 100 µM (inactive) | > 100 µM (inactive) | > 100 µM (inactive) | > 100 µM (inactive) | > 100 µM (inactive) | > 100 µM (inactive) | > 100 µM (inactive) | > 100 µM (inactive) | 47.1 µM (inactive) | 55.2 µM (inactive) | > 100 µM (inactive) | > 100 µM (inactive) | > 100 µM (inactive) | > 100 µM (inactive) |
| N#Cc1ccc(Oc2nc3ccc(C(F)(F)F)cc3nc2-c2ccccc2)cc1 | 17.2 µM (inactive) | 16.2 µM (inactive) | 26.4 µM (inactive) | 12.6 µM (inactive) | 20.3 µM (inactive) | 14.5 µM (inactive) | 20.6 µM (inactive) | 17.8 µM (inactive) | 27.2 µM (inactive) | 19.7 µM (inactive) | 2.77 µM (inactive) | 29.8 µM (inactive) | 15.1 µM (inactive) | 15.6 µM (inactive) | 14.1 µM (inactive) | 20.4 µM (inactive) | 22.1 µM (inactive) | 16.6 µM (inactive) | 20.6 µM (inactive) | 17.8 µM (inactive) |
| CNC(=O)/C=C/C1=CN2C(=O)c3ccc(C)c(O)c3NC(OC)C2C1 (centres undefined) | < 0.0143 µM (active) | < 0.0132 µM (active) | < 0.01 µM (active) | 0.0166 µM (active) | < 0.0143 µM (active) | < 0.01 µM (active) | < 0.01 µM (active) | < 0.01 µM (active) | < 0.0142 µM (active) | 0.0116 µM (active) | < 0.0156 µM (active) | < 0.0135 µM (active) | 0.0142 µM (active) | < 0.0128 µM (active) | 0.0151 µM (active) | < 0.0247 µM (active) | – | 0.0145 µM (active) | < 0.0145 µM (active) | 0.0132 µM (active) |
| O=C(/C=C/c1csc(-c2ccccc2)n1)NCc1ccc(C(=O)NCc2ccccc2)cc1 | > 100 µM (inactive) | > 100 µM (inactive) | 61 µM (inactive) | 24.4 µM (inactive) | 11.3 µM (inactive) | 18.7 µM (inactive) | > 100 µM (inactive) | > 100 µM (inactive) | > 100 µM (inactive) | > 100 µM (inactive) | > 100 µM (inactive) | 32.3 µM (inactive) | 67.1 µM (inactive) | 64.7 µM (inactive) | 19.2 µM (inactive) | > 100 µM (inactive) | > 100 µM (inactive) | > 100 µM (inactive) | 13.3 µM (inactive) | 92 µM (inactive) |
| CC(C)(C)OC(=O)NC(Cc1ccc(O)cn1)C(N)=O (centres undefined) | > 100 µM (inactive) | > 100 µM (inactive) | > 100 µM (inactive) | > 100 µM (inactive) | > 100 µM (inactive) | > 100 µM (inactive) | > 100 µM (inactive) | > 100 µM (inactive) | > 100 µM (inactive) | > 100 µM (inactive) | > 100 µM (inactive) | > 100 µM (inactive) | > 100 µM (inactive) | > 100 µM (inactive) | > 100 µM (inactive) | > 10 µM (inactive) | – | > 100 µM (inactive) | > 100 µM (inactive) | > 100 µM (inactive) |
| CC(C)/C=N\n1c(N)c(C#N)c(C#N)c1C(C)C | 15.8 µM (inactive) | 18.2 µM (inactive) | 18.1 µM (inactive) | 13 µM (inactive) | 31.1 µM (inactive) | 19.4 µM (inactive) | 28.6 µM (inactive) | 35.6 µM (inactive) | 19 µM (inactive) | 15.7 µM (inactive) | 0.951 µM (active) | 18.9 µM (inactive) | 20.3 µM (inactive) | 19.3 µM (inactive) | 4.67 µM (inactive) | 19.9 µM (inactive) | 24 µM (inactive) | – | 20.4 µM (inactive) | 22.8 µM (inactive) |
| ClCC[N+]12CC[N+](CCCl)(CC1)C2 | > 100 µM (inactive) | > 100 µM (inactive) | > 100 µM (inactive) | > 100 µM (inactive) | > 100 µM (inactive) | > 100 µM (inactive) | > 100 µM (inactive) | > 100 µM (inactive) | > 100 µM (inactive) | > 100 µM (inactive) | 55 µM (inactive) | > 100 µM (inactive) | > 100 µM (inactive) | > 100 µM (inactive) | > 100 µM (inactive) | > 100 µM (inactive) | > 100 µM (inactive) | > 100 µM (inactive) | > 100 µM (inactive) | > 100 µM (inactive) |
